The subject of one data set is all cells tested. Briefly: apoptogenic efficiency in all cells tested. The class given is cell-based, human. The protocol: In another study, TUNEL assays were performed on all cell lines 6 hours after cells were initially exposed to taurolidine (cells were treated for 4 hours, rinsed, and then incubated for 2 more hours before TUNEL assay was performed).
. Taurolidine and anisomycin induced apoptosis in MM6, HL-60, and Jurkat cells (Table VIII). MM6 and HL-60 cells were similarly effected, with >80% TUNEL-positive cells after 6 hours. Jurkat cells were less sensitive, with approximately 50% of cells induced to undergo apoptosis after taurolidine treatment. After 6 hours, 73% of anisomycin-treated REH cells were apoptotic, with less than 20% of taurolidine-treated REH cells being TUNEL-positive. However, assay of cells 24 hours after […]

Data set [1] is described as follows: propidium iodide flow cytometry, PBMC all cells, whole blood. As to conditions: human, mean ± SD of 2 experiments. The class given is cell-based. The method, then: FIGS. 15A, 15B, and 15C depict TUNEL analysis of PBMC treated with taurolidine in whole blood, for control cells, taurolidine-treated cells, and anisomycin-treated cells, respectively . Cells were incubated with 500 μg/ml taurolidine for 4 hours, resuspended in fresh medium, incubated for two hours further and processed for TUNEL analysis. Parallel samples were stained with FITC-conjugated anti-CD14 and PI as described herein. Ten thousand events were recorded per sample. TUNEL signal (x -axis) is a measure of DNA fragmentation, while FSC (y-axis) is related to cell size. TUNEL-negative lymphocytes are bounded by rectangle R 1, while TUNEL-negative monocytes (CD 14 positive cells) are bounded by rectangle R2. […]
In the second method, DNA fragmentation was detected via TUNEL assay according to the manufacturer's instructions. With this methodology, 2×10^6 cells were fixed with 2% paraformaldehyde, permeabilized with 0.1% Triton X-100/0.1% citrate, incubated at 37° C. with terminal deoxynucleotidyl transferase and FITC-dUTP, rinsed and analyzed by flow cytometry. […] Parallel aliquots of unfixed cells were treated with PI and FITC-conjugated anti-CD14 and analyzed by flow cytometry, in order to identify cells with permeable cell membranes (since PI binds to DNA but is excluded from cells with intact plasma membranes) and also to determine the cell-specificity of the apoptotic signal. […]

In the next data set the test system is all other cell lines. Kind of data set: LDH release (cell membrane integrity), all other cell lines. As to conditions: all samples from all other cell lines (n=3); 240 min. Format: cell-based, human. The protocol:
In these experiments, integrity of cell membranes following taurolidine treatment was assessed by exclusion of trypan blue and by measuring the release of LDH in MM6, K-562, HL-60, and REH cells. Since BCS contains significant amounts of LDH, these experiments were conducted on cells cultured in AIM-V+0.01% BCS. Four hour treatment of cells was conducted in AIM-V containing 0.01% BCS in order to allow subsequent LDH assay without interference from BCS (which occurs in when normal culture medium, containing 10% BCS, is used). Thus, MM6 cells (5×10^5 cells/ml) were treated with taurolidine for four hours in AIM-V+0.01% BCS, after which an aliquot of the cell suspension was removed for measurement of LDH release. A parallel aliquot of cells was lysed by three cycles of freeze/thaw and the quantity of LDH released was taken to be 100%. Remaining cells were rinsed in HBSS and resuspended in growth medium for measurement of growth rates.
HL-60 cells treated with 50 μl taurolidine. In these samples, LDH present in the culture medium was 8.3±2.3% of that released by completely lysed cells, compared with 2.3±0.8% measured in control cultures. […] After 4 hour treatment, cells were rinsed and returned to growth medium and monitored for viability and growth over the following 3 days. […]

The test system of the next data set is MM6 cells. Briefly: trypan blue exclusion, MM6. Format: cell-based, human. The method, then: FIG. 4A and FIG. 4B are graphs depicting cell viability and growth rates following taurolidine treatment as determined by assay procedures. MM6 cells were treated with taurolidine as described in FIG. 3. After aliquots were collected for the lactate dehydrogenase (LDH) assay, the remainder of the culture was rinsed in Hank's balanced salt solution (HBSS) and resuspended in RPMI+10% BCS without taurolidine. Counts of trypan blue-negative cells represented in FIG. 4A and total cell number represented in FIG. 4B were recorded daily thereafter (with the measurement at Day 1 being made immediately after the four hour taurolidine treatment). Conditions were no treatment (open squares); 50 μg/ml taurolidine (closed squares); 25 μg/ml taurolidine (open circles); and vehicle alone (closed circles). Cells were subcultured when they reached a concentration of 6×10^5 cells/ml. Data are mean±SEM of three experiments.
FIGS. 5A and 5B depict cell viability and growth rates for MM6 cell line following taurolidine treatment, in terms of % trypan blue negative cells and % cell number, respectively. Cells were treated with various concentrations of taurolidine for 4 hours in AIM-V+0.01% BCS. After aliquots were collected for LDH assay, the remainder of the culture was rinsed in HBSS and resuspended in RPMI+10% BCS without taurolidine. Counts of trypan blue-negative cells (FIG. 5A), and total cell number (FIG. 5B), were recorded daily thereafter (with the measurement at Day 1 being made immediately after the 4 hour taurolidine treatment). […] Doubling times were determined under each condition, and expressed as a percentage of the rate of doubling of untreated cells. […]
In these experiments, integrity of cell membranes following taurolidine treatment was assessed by exclusion of trypan blue and by measuring the release of LDH in MM6, K-562, HL-60, and REH cells. […] A parallel aliquot of cells was lysed by three cycles of freeze/thaw and the quantity of LDH released was taken to be 100%. […]

The structures appear in SMILES notation.

As to `O=S1(=O)CCN(CN2CCS(=O)(=O)NC2)CN1` [taurolidine, 4,4'-methylenebis(perhydro-1,2,4-thiadiazin 1,1-dioxide)], the “apoptogenic efficiency versus anisomycin” value in the data set with all cells tested is given as “as efficient an apoptogenic agent as the protein synthesis inhibitor anisomycin”. Also, the figures for the cytotoxicity at 6 h in data set [1] (200 μg/ml) and in data set [1] (500 μg/ml) were 1.6 ± 0.6% and 1.4 ± 0.2%, respectively. The “LDH levels, % of lysed cell samples” value in the data set with all other cell lines was not above 7%. The cytotoxicity at 50 µg/mL in the data set with MM6 cells (Homo sapiens, MM6, 50 μg/ml taurolidine for 4 h, untreated and vehicle 5%, read-out: trypan blue-positive cells on the day following treatment (Day 2)) worked out at 65%. For the same compound, the “trypan blue staining after treatment” value in the data set on MM6 cells (MM6, 25 μg/ml taurolidine) was “did not show an increase in trypan blue staining”. In addition, in the data set with MM6 cells (MM6, taurolidine-treated 4 h, versus control), the “trypan blue exclusion immediately after treatment (Day 1)” value was “equally able to exclude trypan blue”.

These data come from patent publication US6303596A, “Use of taurolidine for treatment of leukemias” (priority 2000, dated 2001).
